From patent US11759496B2, “Compounds and pharmaceutical use thereof in the treatment of cancer” (priority 2016, dated 2023)
Entries after “also recorded” stand apart in the source; their conditions may differ. Read-outs that look alike come from different tables or passages of the source. Values belong to the compound of their own block, whether it stands above or below them. Non-standard residues stand in square brackets, D forms with d. Residues, ends and D or L forms follow the SMILES beside them. *: point of attachment. NMeR = CN[C@@H](CCCNC(=N)N)C(=O)O; X1 = N=C(N)NCCC[C@H](CN)C(=O)*; β3hK = NCCCC[C@H](N)CC(=O)O; Nle = CCCC[C@H](N)C(=O)O

What was measured:
[1] = test system: B-chronic lymphocytic leukemia (CLL) primary cells; conditions: WO 2013/182650, cited from earlier work; for induction of PCD: soluble peptide
MEC-1 cells = test: MEC-1 cell death (PCD) after 2 h peptide treatment; type: cell-based; conditions: for MEC-1 Cell Death (%) 2 h: Table 2, NPD = Non Pertinent Data; for MEC-1 Cell Death (%) 2 h, [peptides] = 200 μM: Table 3, 200 μM peptide; for Cell Death (MEC-1, 2 h): Table 4
Experimental: Then the peptides structures were tested via NMR and X-ray. The peptides were also tested for their activity on MEC-1 and their KDs and Retention times on LCMS were determined.

[2] = target: T1, CD47 (membrane preparation from MEC-1 cells) (Homo sapiens, UniProt Q08722); test: Binding affinity by biolayer interferometry (Octet RED96) on biotinylated MEC-1 cell membrane preparation
T1 construct: MEC-1 cell membrane preparation were biotinylated with the EZ-Link NHS-PEG4-Biotin kit; endogenous in cells; host or cells: MEC-1 cells (membrane preparation)
T1 sequence (Q08722 19-323): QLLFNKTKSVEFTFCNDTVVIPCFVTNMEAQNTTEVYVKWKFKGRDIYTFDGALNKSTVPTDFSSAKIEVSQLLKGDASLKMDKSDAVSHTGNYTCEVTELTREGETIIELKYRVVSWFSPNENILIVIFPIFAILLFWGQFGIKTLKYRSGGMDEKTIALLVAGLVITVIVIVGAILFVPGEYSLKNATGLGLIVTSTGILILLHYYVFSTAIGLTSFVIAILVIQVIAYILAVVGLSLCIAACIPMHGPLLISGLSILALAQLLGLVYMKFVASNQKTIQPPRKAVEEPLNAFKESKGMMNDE
Experimental: The binding affinities of peptides for a membrane preparation from MEC-1 cells were measured by biolayer interferometry on an Octet RED96 System (Pall FortéBio Corp., Menlo Park, Calif.).
The binding affinities of peptides for a membrane preparation from MEC-1 cells were measured by biolayer interferometry on an Octet RED96 System (Pall FortéBio Corp., Menlo Park, Calif.). This system monitors interference of light reflected from two sources (an internal reflection surface and the liquid/solid interface of a fiber optic sensor) to measure the rate of binding of molecules to the biosensor surface.
MEC-1 cell membrane preparation were biotinylated with the EZ-Link NHS-PEG4-Biotin kit from Thermo-Scientific. Biotinylated membranes were then loaded onto SuperStreptavidin (SSA) biosensors (Pall FortéBio Corp.) at empirically determined concentrations.
In order to highlight the pharmacological properties of these peptides, a systematic SAR study by the development of a binding assay allowing to the assessment of the affinity of the 4N1K analogues to CD47 was initiated. […] An Ala-scan to identify the pharmacophores of 4N1K was implemented.
The binding affinities of peptides for a MEC-1 cells membrane preparation were measured by biolayer interferometry on an Octet RED96 System (Pall FortéBio Corp., Menlo Park, Calif.). This system monitors interference of light reflected from two sources (an internal reflection surface and the liquid/solid interface of a fiber optic sensor) to measure the rate of binding of molecules to the biosensor surface. MEC-1 cells membrane preparation is biotinylated with the EZ-Link NHS-PEG4-Biotin kit from Thermo-Scientific and excess biotin is removed using desalting column from Thermo-Scientific. Biotinylated membranes are then loaded onto SuperStreptavidin (SSA) biosensors (Pall FortéBio Corp.) at empirically determined concentrations. […] Typically, the biosensors were pre-equilibrated in PBS containing either biotinylated membranes or biocytine 100 μg/mL. Biosensors are then equilibrated in assay buffer for 10 min, brought to baseline in assay buffer for 60 sec. and transferred to wells containing peptide in dose-response (association for 120 sec. and dissociation for 300 sec.). The double reference with either membrane-loaded biosensors without any peptide dose-response or biocytine-loaded biosensors with each peptide dose-response were run in parallel for background signal double subtractions. Binding kinetics were calculated using the FortéBio Data Analysis v8.2 software.

[3] = Solubility of the peptides in water / aqueous buffer (NMR, CD samples); type: physicochemical; conditions: for solubility of peptide (in words): aqueous buffer, NMR / CD samples
Experimental: CD spectra were recorded on a Jasco 815 spectropolarimeter (Jasco Inc., Easton, Md.) over the wavelength range 190-260 nm, at 0.2 nm intervals and 10 nm·min^−1 scan speed. Peptides were dissolved at 50 μM concentration in a 10 mM sodium phosphate buffer at pH 7.4, using 0.1 cm path length quartz cells (Hellma, Mullheim, Germany). CD spectra were deconvoluted with CDFriend program in order to estimate the peptide secondary structure content.
NMR experiments were recorded on a 500 MHz Bruker Avance III spectrometer (Wissembourg, France) equipped with a TCI cryoprobe. NMR samples were prepared in 50 mM sodium succinate buffer, pH 5, using 2 mM peptide concentration. Sodium 2,2-dimethyl-2-silapentane-d6-5-sulfonate (Sigma Aldrich) was added at 0.1 mM concentration for chemical shift calibration and measurement of the solubilized peptide concentration. NMR experiments were processed with TOPSPIN 2.1 software (Bruker) and spectra were analyzed with Sparky program. ^1H, ^13C and ^15N resonances were assigned using 2D ^1H-^1H TOCSY (DIPSI2 isotropic scheme of 70 ms duration), 2D ^1H-^1H ROESY (300 ms mixing time), 2D ^1H-^13C HSQC, 2D ^1H-^15N HSQC, and 2D ^1H-^13C HMBC spectra. The complete ^1H, ^13C and ^15N NMR assignments of peptides 4N1K, PKT2, PKHB1 and 4NGG are provided in Tables S1-S4 (supporting information). […] The chemical shift deviations of Ha protons and Cα carbons were calculated as the differences between observed chemical shifts and random coil values reported in water. The conformational analysis of thrombospondin-1 was carried out on the crystal structure of a C-terminal fragment of human thrombospondin-1 using Pymol (Schrödinger) and Procheck programs. Predictions of NMR chemical shifts on the X-ray structure were carried out using SHIFTX2 program.

[4] = target: T2, CD47 (NT.115-labeled membrane) (Homo sapiens, UniProt Q08722); test: Binding affinity by microscale thermophoresis (MST), NT.115-labeled membrane; conditions: Table 2; average of at least three independent experiments; NPD = Non Pertinent Data
T2 construct: the concentration of the NT.115-labeled membrane was kept constant; endogenous in cells
T2 sequence (Q08722 19-323): as above
Experimental: For all experiments the concentration of the NT.115-labeled membrane was kept constant, while the concentrations of the ligand (peptide) was varied. After a short incubation time (5 min) the samples were loaded into MST premium glass capillaries and the MST analysis was performed using the Monolith NT.115.

CLL cells = test: Cell death (Annexin-V and PI co-positivity) in CLL cells (FIG. 2); type: cell-based; conditions: 6 h
Experimental: FIG. 2A: cell death, measured as Annexin-V and PI co-positivity, was assessed leukemic cells treated 6 h with different concentrations of PKT16 or PKHB1. The data in the plot are the mean±s.d. (n=5). FIG. 2B: cell death induced by PKT16 (100 μM, 6 h) was measured in B-cells from twenty healthy donors and forty CLL patients. The percentages refer to the mean of the Annexin-V/PI-positive staining

[5] = test system: B CLL cells that have the C481S mutation BTK gene; test: Sensitivity of ibrutinib-resistant B CLL cells to PKT16; type: cell-based; conditions: resistance to Ibrutinib
OSU cells = test: Deaths on OSU cells treated with PKT16 or PKT16-FF (FIG. 4); type: cell-based; conditions: 6 hours, control 9.5%
Experimental: FIG. 4: compares deaths on OSU cells treated with PKT16 or PKT16-FF. For PKT16, it can be seen that the reported deaths are of 11.1, 17.9 and 52.7% for concentrations of 25 μM, 50 μM and 100 μM respectively. For PKT16-FF, it can be seen that the reported deaths are of 16.6, 38.3 and 82.4% for concentrations of 25 μM, 50 μM and 100 μM respectively. The control test provided 9.5% death of the cells.
It was synthesized using common solide phase peptide synthesis technics as mentioned above.

[6] = Table 2, average of at least three independent experiments, NPD = Non Pertinent Data, read-out: Kd (μM) (OR)
[7] = Table 3, average of two or more measurements, NPD = Non Pertinent Data, read-out: Kd
[8] = Table 2, average of at least three independent experiments, NPD = Non Pertinent Data

Kd [2, 6]: 19 ± 1.6 µM | Kd [2, 7]: 19 ± 1.6 µM
Compound: CSCC[C@H](NC(=O)[C@@H](NC(=O)[C@@H](NC(=O)[C@H](Cc1ccc(O)cc1)NC(=O)[C@H](Cc1ccccc1)NC(=O)[C@H](CCCNC(=N)N)NC(=O)[C@@H](N)CCCCN)C(C)C)C(C)C)C(=O)N[C@@H](Cc1c[nH]c2ccccc12)C(=O)N[C@@H](CCCCN)C(=O)N[C@@H](CCCCN)C(=O)O [4N1K, reference compound]
selective elimination of leukemic B-cells versus healthy B-lymphocytes [1]: specifically eliminates leukemic B-cells | induction of PCD [1]: induces caspase-independent PCD | MEC-1 Cell Death (%) 2 h (MEC-1 cells): 23% | MEC-1 Cell Death (%) 2 h, [peptides] = 200 μM (MEC-1 cells): 23%

Kd (μM) (OR) [2, 8]: NPD
Compound: CSCC[C@H](NC(=O)[C@@H](NC(=O)[C@@H](NC(=O)[C@H](Cc1ccc(O)cc1)NC(=O)[C@H](Cc1ccccc1)NC(=O)[C@@H](N)CCCNC(=N)N)C(C)C)C(C)C)C(=O)N[C@@H](Cc1c[nH]c2ccccc12)C(=O)N[C@@H](CCCCN)C(=O)O [4N1, reference compound]
solubility of peptide (in words) [3]: least soluble; also recorded: poorly soluble | MEC-1 Cell Death (%) 2 h (MEC-1 cells): 13%

Kd [2, 6]: 43 ± 21 µM | Kd [2, 7]: 43 ± 21 µM
Compound: CSCC[C@H](NC(=O)[C@@H](NC(=O)[C@@H](NC(=O)[C@H](Cc1ccc(O)cc1)NC(=O)[C@H](Cc1ccccc1)NC(=O)[C@H](CCCNC(=N)N)NC(=O)[C@H](N)CCCCN)C(C)C)C(C)C)C(=O)N[C@@H](Cc1c[nH]c2ccccc12)C(=O)N[C@@H](CCCCN)C(=O)N[C@H](CCCCN)C(=O)O [PKHB1, reference compound]
selective elimination of leukemic B-cells versus healthy B-lymphocytes [1]: specifically eliminates leukemic B-cells | MEC-1 Cell Death (%) 2 h (MEC-1 cells): 63% | MEC-1 Cell Death (%) 2 h, [peptides] = 200 μM (MEC-1 cells): 63% | Cell Death (MEC-1, 2 h) (MEC-1 cells): 78%

solubility in water ([3]; water): low solubility in water
Compound: CCCC[C@H](NC(=O)[C@@H](NC(=O)[C@@H](NC(=O)[C@H](Cc1ccccc1)NC(=O)[C@H](Cc1ccccc1)NC(=O)[C@H](CCCNC(=N)N)N(C)C(=O)[C@H](N)CCCCN)C(C)C)C(C)C)C(=O)N[C@@H](Cc1c[nH]c2ccccc12)C(=O)N[C@@H](CCCCN)C(=O)N[C@H](CCCCN)C(=O)O [PKT16-FF, H-(D)K ψ(CONMe)R F F V V X W K (D)K-OH] (H-[dK][NMeR]FFVV[Nle]WK[dK]-OH)

Kd (μM) ([2]; Table 3, average of two or more measurements, NPD = Non Pertinent Data): NPD
Compound: CSCC[C@H](NC(=O)[C@@H](NC(=O)[C@H](C)NC(=O)[C@H](Cc1ccc(O)cc1)NC(=O)[C@H](Cc1ccccc1)NC(=O)[C@H](CCCNC(=N)N)NC(=O)[C@H](N)CCCCN)C(C)C)C(=O)N[C@@H](Cc1c[nH]c2ccccc12)C(=O)N[C@@H](CCCCN)C(=O)N[C@H](CCCCN)C(=O)O [V5/A, kRFY(A)VMWKk] (H-[dK]RFYAVMWK[dK]-OH; N-terminus and C-terminus assumed)
MEC-1 Cell Death (%) 2 h, [peptides] = 200 μM (MEC-1 cells): 12%

Compound: H-(D)K R F Y V V M W ψ(CONMe)K (D)K-OH (KRFYVVMWKK; D-residues, N-methyl amide bond; (1)..(1) Amino acid at position 1 is in the D-configuration; (9)..(9) Amino acid at position 9 is backbone-N- …ON of the Lysine; (10)..(10) Amino acid at position 10 is in the D-configuration) [PKT14]
Cell Death (MEC-1, 2 h) (MEC-1 cells): 35% | Kd(μM)PR ([2]; Table 4, N-methyl peptides, NPD = Non Pertinent Data): NPD

solubility of peptide (in words) [3]: poorly soluble | Kd (μM) (MST) [4]: NPD | Kd (μM) (OR) [2, 8]: NPD
Compound: CSCC[C@H](NC(=O)[C@@H](NC(=O)[C@@H](NC(=O)[C@H](Cc1ccc(O)cc1)NC(=O)[C@H](Cc1ccccc1)NC(=O)[C@@H](CN)CCCNC(=N)N)C(C)C)C(C)C)C(=O)N[C@@H](Cc1c[nH]c2ccccc12)C(=O)N[C@@H](CCCCN)CC(=O)O [compound 3, (β^2hR)FYVVMW(β^3hK)] (X1-FYVVMW[β3hK]-OH)
MEC-1 Cell Death (%) 2 h (MEC-1 cells): NPD

Compound: CSCC[C@H](NC(=O)[C@@H](NC(=O)[C@@H](NC(=O)[C@H](Cc1ccc(O)cc1)NC(=O)[C@H](Cc1ccccc1)NC(=O)[C@H](CCCNC(=N)N)NC(C)=O)C(C)C)C(C)C)C(=O)N[C@@H](Cc1c[nH]c2ccccc12)C(=O)N[C@@H](CCCCN)C(N)=O [compound 1]
solubility of peptide (in words) ([3]; listed as PKT1): least soluble; also recorded: poorly soluble | MEC-1 Cell Death (%) 2 h (MEC-1 cells): 27%

Kd (μM) (MST) [4]: NPD | Kd (μM) (OR) [2, 8]: NPD
Compound: CSCC[C@H](NC(=O)CNC(=O)CNC(=O)[C@H](Cc1ccc(O)cc1)NC(=O)[C@H](Cc1ccccc1)NC(=O)[C@H](CCCNC(=N)N)NC(=O)[C@@H](N)CCCCN)C(=O)N[C@@H](Cc1c[nH]c2ccccc12)C(=O)N[C@@H](CCCCN)C(=O)N[C@@H](CCCCN)C(=O)O [4NGG, reference compound] (H-KRFYGGMWKK-OH)
induction of PCD [1]: unable to induce PCD | MEC-1 Cell Death (%) 2 h (MEC-1 cells): 2%

Kd ([2]; Table 5, apparent Kd, biolayer interferometry, read-out: Kd (BI)): 74 µM
Compound: CCCC[C@H](NC(=O)[C@@H](NC(=O)[C@@H](NC(=O)[C@H](Cc1ccc(O)cc1)NC(=O)[C@H](Cc1ccccc1)NC(=O)[C@H](CCCNC(=N)N)N(C)C(=O)[C@H](N)CCCCN)C(C)C)C(C)C)C(=O)N[C@@H](Cc1c[nH]c2ccccc12)C(=O)N[C@@H](CCCCN)C(=O)N[C@H](CCCCN)C(=O)O [PKT16, H-(D)K ψ(CONMe)R F Y V V X W K (D)K-OH] (H-[dK][NMeR]FYVV[Nle]WK[dK]-OH)
PCD activity relative to PKHB1 (CLL cells): improved PCD activity | sensitivity to treatment with PKT16 [5]: sensitive | deaths on OSU cells (OSU cells; 25 μM): 11.1% | deaths on OSU cells (OSU cells; 50 μM): 17.9% | deaths on OSU cells (OSU cells; 100 μM): 52.7% | Cell Death (MEC-1, 2 h) (MEC-1 cells): 68%
